Measured values reported in publication PMC8058616 (Bioorganic & medicinal chemistry, 2021).
pIC50: −log10 of the molar value. Like-named read-outs stand apart in the source and are kept apart here.

Key:
KB human tumor cells [1] = assay: Nucleoside/AICA protection of KB cell proliferation; conditions: AICA 320 μM
[2] = tested on: PC43–10 CHO cells (human RFC); conditions: read-out: IC50 PC43–10 (RFC); 96 h; mean (SE); previously published ref 7, 40; cited from earlier work
KB human tumor cells [3] = conditions: AICA 320 μM, as previously reported ref 40; cited from earlier work
NCI-IGROV1 EOC cells = assay: Targeted metabolomics; assay type: cell-based, human; conditions: 1 μM inhibitor, 48 h; for Increase in ZMP (AICAR) level: relative to control
[4] = tested on: KB nasopharyngeal carcinoma cells; assay: Proliferation assay, KB human tumor cells; assay type: cell-based; conditions: 96 h, read-out: IC50 KB (+FA)
[5] = tested on: NCI-IGROV1 ovarian cancer cells; assay: Proliferation assay, NCI-IGROV1 EOC cells; assay type: cell-based, human; conditions: 96 h; for pIC50: Homo sapiens
[6] = tested on: PC43–10 CHO cells (human RFC); assay: Proliferation assay, RFC-expressing PC43–10 CHO cells; conditions: PC43-10, 96 h, read-out: IC50 PC43–10 (RFC)
[7] = molecular target: human AICARFTase/IMP cyclohydrolase (ATIC) (Homo sapiens, UniProt P31939); assay: In vitro spectrophotometric AICARFTase; assay type: biochemical; conditions: ratio of Ki values
human GARFTase = molecular target: T1, human GARFTase (Homo sapiens, UniProt P22102); assay: In vitro spectrophotometric GARFTase assay with purified enzyme; assay type: biochemical; conditions: ratio of Ki values
T1 sequence (P22102 808-1010): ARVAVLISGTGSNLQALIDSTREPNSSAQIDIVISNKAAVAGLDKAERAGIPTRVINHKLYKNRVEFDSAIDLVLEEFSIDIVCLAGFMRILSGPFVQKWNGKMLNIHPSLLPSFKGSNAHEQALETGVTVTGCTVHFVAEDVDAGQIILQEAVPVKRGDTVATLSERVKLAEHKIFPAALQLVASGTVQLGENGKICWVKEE

[8] = read-out: IC50 NCI-IGROV1 (+FA)
[9] = read-out: IC50 NCI-IGROV1 (RFC/FRα/PCFT)

Sequence of human AICARFTase/IMP cyclohydrolase (ATIC) (P31939 whole entry): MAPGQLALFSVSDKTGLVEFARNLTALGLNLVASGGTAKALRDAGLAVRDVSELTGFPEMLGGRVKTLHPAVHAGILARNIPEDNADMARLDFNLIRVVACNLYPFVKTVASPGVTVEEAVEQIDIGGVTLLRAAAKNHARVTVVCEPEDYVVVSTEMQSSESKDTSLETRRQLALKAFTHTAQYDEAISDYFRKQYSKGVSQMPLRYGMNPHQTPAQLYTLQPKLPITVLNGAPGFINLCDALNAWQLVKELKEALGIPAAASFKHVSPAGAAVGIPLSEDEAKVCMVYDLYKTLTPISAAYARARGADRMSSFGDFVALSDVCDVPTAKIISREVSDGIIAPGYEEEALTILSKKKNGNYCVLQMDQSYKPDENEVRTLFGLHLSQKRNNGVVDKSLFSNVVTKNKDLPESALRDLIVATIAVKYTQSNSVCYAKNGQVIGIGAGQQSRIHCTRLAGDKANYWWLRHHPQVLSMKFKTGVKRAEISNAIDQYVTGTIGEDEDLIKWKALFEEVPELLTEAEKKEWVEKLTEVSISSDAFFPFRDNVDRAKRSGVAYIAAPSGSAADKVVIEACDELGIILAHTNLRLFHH

Row | SMILES | pIC50 [4] | pIC50 [5, 8] | pIC50 [6] | other results
1 | Nc1nc2[nH]cc(CCCCc3ccc(C(=O)N[C@@H](CCC(=O)O)C(=O)O)cc3)c2c(=O)[nH]1 [AGF23] |  |  |  | Protection by AICA (KB human tumor cells [1]): completely protected
2 | Nc1nc2sc(CCCCc3ccc(C(=O)N[C@@H](CCC(=O)O)C(=O)O)cc3)cc2c(=O)[nH]1 [Compound 2] |  |  |  | pIC50 [2]: < 6.00; Protection by AICA (KB human tumor cells [3]): incomplete protection
3 | Nc1nc2sc(CCCCc3ccc(C(=O)N[C@@H](CCC(=O)O)C(=O)O)s3)cc2c(=O)[nH]1 [Compound 3, (5-(4-(2-amino-4-oxo-3,4-dihydrothieno[2,3-d]pyrimidin-6-yl)butyl)thiophene-2-carbonyl)-L-glutamic acid] | < 6.00 | < 6.00 | < 6.00 | fGAR level, % of control (NCI-IGROV1 EOC cells): ~ 50 % of control; Increase in ZMP (AICAR) level (NCI-IGROV1 EOC cells): 2 fold
4 | Nc1nc2sc(CCCCc3ccc(C(=O)N[C@@H](CCC(=O)O)C(=O)O)o3)cc2c(=O)[nH]1 [Compound 4, (5-(4-(2-amino-4-oxo-3,4-dihydrothieno[2,3-d]pyrimidin-6-yl)butyl)furan-2-carbonyl)-L-glutamic acid] | < 6.00 | < 6.00 | < 6.00 | pIC50 [5, 9]: < 6.00
5 | Nc1nc2sc(CCCc3ccc(C(=O)N[C@@H](CCC(=O)O)C(=O)O)s3)cc2c(=O)[nH]1 [Compound 5, (5-(3-(2-amino-4-oxo-3,4-dihydrothieno[2,3-d]pyrimidin-6-yl)propyl)thiophene-2-carbonyl)-L-glutamic acid] | < 6.00 | < 6.00 | < 6.00 | fGAR level, % of control (NCI-IGROV1 EOC cells): ~ 75 % of control; Increase in ZMP (AICAR) level (NCI-IGROV1 EOC cells): 3 fold
6 | Nc1nc2sc(CCCc3csc(C(=O)N[C@@H](CCC(=O)O)C(=O)O)c3)cc2c(=O)[nH]1 [Compound 6, (4-(3-(2-amino-4-oxo-3,4-dihydrothieno[2,3-d]pyrimidin-6-yl)propyl)thiophene-2-carbonyl)-L-glutamic acid] | < 6.00 | < 6.00 | < 6.00 | 
7 | Nc1nc2sc(CCCc3cc(C(=O)N[C@@H](CCC(=O)O)C(=O)O)cs3)cc2c(=O)[nH]1 [Compound 7, (5-(3-(2-amino-4-oxo-3,4-dihydrothieno[2,3-d]pyrimidin-6-yl)propyl)thiophene-3-carbonyl)-L-glu-tamic acid] | < 6.00 | < 6.00 | < 6.00 | 
8 | Nc1nc2sc(CCCCc3cc(C(=O)N[C@@H](CCC(=O)O)C(=O)O)cs3)cc2c(=O)[nH]1 [Compound 8, (5-(4-(2-amino-4-oxo-3,4-dihydrothieno[2,3-d]pyrimidin-6-yl)butyl)thiophene-3-carbonyl)-L-glutamic acid] | < 6.00 | < 6.00 | < 6.00 | Fold decreased AICARFTase Ki over lead compound 2 [7]: ~ 9 fold; Fold decreased GARFTase Ki over lead compound 2 (human GARFTase): ~ 20 fold; IC50 NCI-IGROV1 (RFC/FRα/PCFT) ([5]; without folic acid, mean (SE)): inert; pIC50 [5, 9]: < 6.00
9 | Nc1nc2sc(CCCCc3csc(C(=O)N[C@@H](CCC(=O)O)C(=O)O)c3)cc2c(=O)[nH]1 [Compound 9, (4-(4-(2-amino-4-oxo-3,4-dihydrothieno[2,3-d]pyrimidin-6-yl)butyl)thiophene-2-carbonyl)-L-glutamic acid] | < 6.00 | < 6.00 | < 6.00 | 
